Assay results as given in patent US20260306639A1, “DEGRADER FOR DECOMPOSING CMET PROTEIN, AND PHARMACEUTICAL COMPOSITION COMPRISING SAME” (INNOCURE THERAPEUTICS, INC., priority 2022, published 2026).

System: c-MET
Assay: c-MET protein degradation (Simple Western), MKN-45 cells
Format: cell-based, human
Details: MKN-45 gastric cancer cells, c-MET overexpressing; 24 hours
Procedure: In order to assess the resolution of the compound of the present invention for c-MET expressed in cells, cells were dispensed in a 12-well plate at a concentration of 2×10^5 cells/well, and then gastric cancer cell lines were treated with samples for 24 hours and lung cancer cell lines were treated for 48 hours. Cell lysates were collected using a scraper on ice, centrifuged at 4° C. 15,000 rpm for 30 min to obtain a protein-containing supernatant. Protein expression was then measured using the Simple Western Automated Western Blot System Abby instrument using 3 μg of protein for each sample. SDS and heat-induced denaturation proteins were separated by molecular weight, attached to capillary, reacted with anti-c-MET or anti-GAPDH antibodies, which are primary antibodies, and then reacted with HRP-conjugated secondary antibodies, and analyzed the protein expression signal with compass software. Protein expression was normalized based on the expression value of GAPDH, and protein development in each sample was measured as a percentage (%) based on 100% of samples treated with 0.1% DMSO carriers, and DC50 (concentration of a compound where 50% protein inhibition is achieved) was calculated from the change in protein expression amount due to compound treatment.

Row | SMILES | DC50
1 | N#Cc1cccc(-c2ccc(=O)n(Cc3cccc(-c4ncc(OCC5CCN(CCCCC(=O)N6CCN(c7ccc8c(=O)n(C9CCC(=O)NC9=O)ncc8c7)CC6)CC5)cn4)c3)n2)c1 (centres unmarked) [ICT-0001252] | < 0.1 µM
2 | Cc1nn(C2CCC(=O)NC2=O)c(=O)c2ccc(N3CCC(CN4CCN(CC(=O)N5CCC(COc6cnc(-c7cccc(Cn8nc(-c9cccc(C#N)c9)ccc8=O)c7)nc6)CC5)CC4)CC3)cc12 (centres unmarked) [ICT-0001213] | < 0.1 µM
3 | Cc1nn(C2CCC(=O)NC2=O)c(=O)c2ccc(N3CCN(CCC(=O)N4CCC(COc5cnc(-c6cccc(Cn7nc(-c8cccc(C#N)c8)ccc7=O)c6)nc5)CC4)CC3)cc12 (centres unmarked) [ICT-0001174] | < 0.1 µM
4 | Cc1nn(C2CCC(=O)NC2=O)c(=O)c2ccc(N3CCN(C(=O)CN4CCC(COc5cnc(-c6cccc(Cn7nc(-c8cccc(C#N)c8)ccc7=O)c6)nc5)CC4)CC3)cc12 (centres unmarked) [ICT-0001177, 3-(1-{[3-(5-{[1-(2-{4-[2-(2,6-dioxopiperidin-3-yl)-4-methyl-1-oxo-1,2-dihydropthalazine-6-yl]piperazine-1-yl}-2-oxoethyl)piperidine-4-yl]methoxy}pyrimidine-2-yl)phenyl]methyl}-6-oxo-1,6-dihydropyridazine-3-yl)benzonitrile] | < 0.1 µM
5 | N#Cc1cccc(-c2ccc(=O)n(Cc3cccc(-c4ncc(OCC5CCN(C(=O)CCCCN6CCN(c7ccc8c(=O)n(C9CCC(=O)NC9=O)ncc8c7)CC6)CC5)cn4)c3)n2)c1 (centres unmarked) [ICT-0001201, 3-(1-{[3-(5-{[1-(5-{4-[2-(2,6-dioxopiperidin-3-yl)-1-oxo-1,2-dihydropetalazine-6-yl]piperazine-1-yl}pentanoyl)piperidine-4-il]methoxy}pyrimidine-2-yl)phenyl]methyl}6-oxo-1,6-dihydropyridazine-3-yl)benzonitrile] | < 0.1 µM
6 | Cc1nn(C2CCC(=O)NC2=O)c(=O)c2ccc(N3CCN(CC4CCN(CC(=O)N5CCC(COc6cnc(-c7cccc(Cn8nc(-c9cccc(C#N)c9)ccc8=O)c7)nc6)CC5)CC4)CC3)cc12 (centres unmarked) [ICT-0001256] | < 0.1 µM
7 | N#Cc1cccc(-c2ccc(=O)n(Cc3cccc(-c4ncc(OCC5CCN(CCCC(=O)N6CCN(c7ccc8c(=O)n(C9CCC(=O)NC9=O)ncc8c7)CC6)CC5)cn4)c3)n2)c1 (centres unmarked) [ICT-0001226, 3-(1-(3-(5-((1-(4-(4-(2-(2,6-dioxopiperidine-3-yl)-1-oxo-1,2-dihydropetalazine-6-yl)piperazine-1-il)-4-oxobutyl)piperidine-4-il)methoxy)pyrimidine-2-yl)benzyl)-6-oxo-1,6-dihydropyridazine-3-yl)benzonitrile] | 0.1 to 1 µM
8 | Cc1nn(C2CCC(=O)NC2=O)c(=O)c2ccc(N3CCN(CC4CN(CC(=O)N5CCC(COc6cnc(-c7cccc(Cn8nc(-c9cccc(C#N)c9)ccc8=O)c7)nc6)CC5)C4)CC3)cc12 (centres unmarked) [ICT-0001253] | < 0.1 µM
9 | Cc1nn(C2CCC(=O)NC2=O)c(=O)c2cc(N3CCN(C(=O)CN4CCC(COc5cnc(-c6cccc(Cn7nc(-c8cccc(C#N)c8)ccc7=O)c6)nc5)CC4)CC3)ccc12 (centres unmarked) [ICT-0001115, 3-(1-(3-(5-((1-(2-(4-(3-(2,6-dioxopiperidin-3-yl)-1-methyl-4-oxo-3,4-dihydropetalazine-6-yl)piperazine-1-yl)2-oxoethyl)piperidine-4-il)methoxy)pyrimidine-2-yl)benzyl)6-oxo-1,6-dihydropyridazine-3-yl)benzonitrile] | < 0.1 µM
10 | Cn1cc(-c2cnc3c(nnn3C[C@@H]3CN(c4ncc(-c5ccc(CN6CCN(C(=O)CCCCNc7ccc8c(=O)n(C9CCC(=O)NC9=O)ncc8c7)CC6)cc5)cn4)CCO3)n2)cn1 (stereo partly drawn) [ICT-0000924, 3-(6-((5-(4-(4-(2-((S)-2-((5-(1-methyl-1H-pyrazole-4-yl)-1H-[1,2,3]triazolo[4,5-b]pyrazine-1-yl)methyl)morpholino)pyrimidine-5-yl)benzyl)piperazine-1-yl)5-oxopentyl)amino)1-oxopthalazine-2(1H)-yl)piperidine-2,6-dione] | < 0.1 µM
11 | Cn1cc(-c2cnc3c(nnn3C[C@@H]3CN(c4ncc(-c5ccc(CN6CCN(C(=O)CCCCCCNc7ccc8c(=O)n(C9CCC(=O)NC9=O)ncc8c7)CC6)cc5)cn4)CCO3)n2)cn1 (stereo partly drawn) [ICT-0000925, 3-(6-((7-(4-(4-(2-((S)-2-((5-(1-methyl-1H-pyrazole-4-yl)-1H-[1,2,3]triazolo[4,5-b]pyrazine-1-yl)methyl)morpholino)pyrimidine-5-yl)benzyl)piperazine-1-yl)7-oxoheptyl)amino)1-oxopthalazine-2(1H)-yl)piperidine-2,6-dione] | < 0.1 µM
12 | Cc1nn(C2CCC(=O)NC2=O)c(=O)c2ccc(N3CCN(C(=O)CCCN4CCC(COc5cnc(-c6cccc(Cn7nc(-c8cccc(C#N)c8)ccc7=O)c6)nc5)CC4)CC3)cc12 (centres unmarked) [ICT-0001227, 3-(1-(3-(5-((1-(4-(4-(2-(2,6-dioxopiperidin-3-yl)-4-methyl-1-oxo-1,2-dihydropetalazine-6-yl)piperazine-1-yl)4-oxobutyl)piperidine-4-yl)methoxy)pyrimidine-2-yl)benzyl)6-oxo-1,6-dihydropyridazine-3-yl)benzonitrile] | 0.1 to 1 µM
13 | Cc1nn(C2CCC(=O)NC2=O)c(=O)c2cc(F)c(N3CCN(CC4CCN(C(=O)CN5CCC(COc6cnc(-c7cccc(Cn8nc(-c9cccc(C#N)c9)ccc8=O)c7)nc6)CC5)CC4)CC3)cc12 (centres unmarked) [ICT-0001204] | < 0.1 µM
14 | N#Cc1cccc(-c2ccc(=O)n(Cc3cccc(-c4ncc(OCC5CCN(CC(=O)NCCCC#Cc6ccc7c(=O)n(C8CCC(=O)NC8=O)ncc7c6)CC5)cn4)c3)n2)c1 (centres unmarked) [ICT-0001205] | < 0.1 µM
15 | Cc1nn(C2CCC(=O)NC2=O)c(=O)c2ccc(N3CCC(CN4CCN(C(=O)CN5CCC(COc6cnc(-c7cccc(Cn8nc(-c9cccc(C#N)c9)ccc8=O)c7)nc6)CC5)CC4)CC3)cc12 (centres unmarked) [ICT-0001236] | < 0.1 µM
16 | Cn1cc(-c2cnc3c(nnn3CC3CN(c4ncc(-c5ccc(CN6CCN(C(=O)CCCNc7cccc8cnn(C9CCC(=O)NC9=O)c(=O)c78)CC6)cc5)cn4)CCO3)n2)cn1 [ICT-0000969, 3-(8-((4-(4-(4-(4-(2-((S)-2-((5-(1-methyl-1H-pyrazole-4-yl)-1H-[1,2,3]triazolo[4,5-b]pyrazine-1-yl)methyl)morpholino)pyrimidine-5-yl)benzyl)piperazine-1-yl)4-oxobutyl)amino)1-oxopthalazine-2(1H)-yl)piperidine-2,6-dione] | < 0.1 µM

The remaining lines, values ahead:

Row | DC50 | SMILES
17 | > 1 µM | Cc1nn(C2CCC(=O)NC2=O)c(=O)c2cc(N3CCC(CN4CCN(C(=O)CN5CCC(COc6cnc(-c7cccc(Cn8nc(-c9cccc(C#N)c9)ccc8=O)c7)nc6)CC5)CC4)CC3)ccc12 (centres unmarked) [ICT-0001234]
18 | > 1 µM | Cn1cc(-c2cnc3c(nnn3C[C@@H]3CN(c4ncc(-c5ccc(CN6CCN(C(=O)COCCOCCOCCOCCNc7ccc8c(=O)n(C9CCC(=O)NC9=O)ncc8c7)CC6)cc5)cn4)CCO3)n2)cn1 (stereo partly drawn) [ICT-0000939, 3-[6-(15-{4-[(4-{2-[(2S)-2-{[5-(1-methyl-1H-pyrazole-4-yl)-1H-[1,2,3]triazolo[4,5-b]pyrazine-1-yl]methyl}morpholine-4-yl]pyrimidine-5-yl}phenyl)methyl]piperazine-1-yl}-15-oxo-4,7,10,13-tetraoxa-1-azpentadecane-1-yl)-1-oxo-1,2-dihydroptalazine-2-yl]piperidine-2,6-dione]
19 | 0.1 to 1 µM | Cc1nn(C2CCC(=O)NC2=O)c(=O)c2ccc(N3CCN(C[C@H]4CCN(CC(=O)N5CCC(COc6cnc(-c7cccc(Cn8nc(-c9cccc(C#N)c9)ccc8=O)c7)nc6)CC5)CO4)CC3)cc12 (some centres unmarked) [ICT-0001254]
20 | < 0.1 µM | N#Cc1cccc(-c2ccc(=O)n(Cc3cccc(-c4ncc(OCC5CCN(C(=O)CCCN6CCN(c7ccc8c(=O)n(C9CCC(=O)NC9=O)ncc8c7)CC6)CC5)cn4)c3)n2)c1 (centres unmarked) [ICT-0001200, 3-(1-{[3-(5-{[1-(4-{4-[2-(2,6-dioxopiperidine-3-yl)-1-oxo-1,2-dihydropthalazine-6-yl]piperazine-1-day}butanoyl)piperidine-4-il]methoxy}pyrimidine-2-yl)phenyl]methyl}6-oxo-1,6-dihydropyridazine-3-yl)benzonitrile]
21 | > 1 µM | Cc1nn(C2CCC(=O)NC2=O)c(=O)c2c(NCC(=O)N3CCC(COc4cnc(-c5cccc(Cn6nc(-c7cccc(C#N)c7)ccc6=O)c5)nc4)CC3)cccc12 (centres unmarked) [ICT-0000981]
22 | 0.1 to 1 µM | N#Cc1cccc(-c2ccc(=O)n(Cc3cccc(-c4ncc(OCC5CCN(C(=O)CCOCCOCCOCCOCCNc6cccc7cnn(C8CCC(=O)NC8=O)c(=O)c67)CC5)cn4)c3)n2)c1 (centres unmarked) [ICT-0000907]
23 | < 0.1 µM | N#Cc1cccc(-c2ccc(=O)n(Cc3cccc(-c4ncc(OCC5CCN(CC(=O)NCCCCCc6ccc7c(=O)n(C8CCC(=O)NC8=O)ncc7c6)CC5)cn4)c3)n2)c1 (centres unmarked) [ICT-0001206]
24 | < 0.1 µM | Cc1nn(C2CCC(=O)NC2=O)c(=O)c2ccc(N3CCN(CC4CN(C(=O)CN5CCC(COc6cnc(-c7cccc(Cn8nc(-c9cccc(C#N)c9)ccc8=O)c7)nc6)CC5)C4)CC3)cc12 (centres unmarked) [ICT-0001235]
25 | < 0.1 µM | Cc1nn(C2CCC(=O)NC2=O)c(=O)c2cc(N3CCC(CN4CCN(CC(=O)N5CCC(COc6cnc(-c7cccc(Cn8nc(-c9cccc(C#N)c9)ccc8=O)c7)nc6)CC5)CC4)CC3)ccc12 (centres unmarked) [ICT-0001239]
26 | < 0.1 µM | Cc1nn(C2CCC(=O)NC2=O)c(=O)c2ccc(N3CCN(CCCC(=O)N4CCC(COc5cnc(-c6cccc(Cn7nc(-c8cccc(C#N)c8)ccc7=O)c6)nc5)CC4)CC3)cc12 (centres unmarked) [ICT-0001175, 3-(1-(3-(5-((1-(4-(4-(2-(2,6-dioxopiperidine-3-yl)-4-methyl-1-oxo-1,2-dihydropthalazine-6-yl)piperazine-1-yl)butanoyl)piperidine-4-il)methoxy)pyrimidine-2-yl)benzyl)6-oxo-1,6-dihydropyridazine-3-yl)benzonitrile]
